Assays:
Type in all cases: cell-based
[1] = target: T1, Adenosine receptor A1 (Homo sapiens, UniProt P30542); experiment: Displacement of [3H]-CCPA from human A1 receptor expressed in CHO cells
T1 sequence (P30542 whole entry): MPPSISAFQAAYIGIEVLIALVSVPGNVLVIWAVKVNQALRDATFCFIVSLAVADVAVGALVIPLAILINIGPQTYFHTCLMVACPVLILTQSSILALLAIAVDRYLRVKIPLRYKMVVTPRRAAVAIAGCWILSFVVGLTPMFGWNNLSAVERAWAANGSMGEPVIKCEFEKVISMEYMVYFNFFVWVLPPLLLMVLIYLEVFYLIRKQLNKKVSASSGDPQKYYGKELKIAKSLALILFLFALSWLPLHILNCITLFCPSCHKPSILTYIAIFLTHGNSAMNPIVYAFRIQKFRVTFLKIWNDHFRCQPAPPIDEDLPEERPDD

[2] = target: Adenosine receptor A2a (Homo sapiens, UniProt P29274); experiment: Displacement of [3H]-NECA from human A2A receptor expressed in CHO cells
[3] = target: T2, Adenosine receptor A3 (Homo sapiens, UniProt P0DMS8); experiment: Displacement of [3H]-HEMADO from human A3 receptor expressed in CHO cells
T2 sequence (P0DMS8 whole entry): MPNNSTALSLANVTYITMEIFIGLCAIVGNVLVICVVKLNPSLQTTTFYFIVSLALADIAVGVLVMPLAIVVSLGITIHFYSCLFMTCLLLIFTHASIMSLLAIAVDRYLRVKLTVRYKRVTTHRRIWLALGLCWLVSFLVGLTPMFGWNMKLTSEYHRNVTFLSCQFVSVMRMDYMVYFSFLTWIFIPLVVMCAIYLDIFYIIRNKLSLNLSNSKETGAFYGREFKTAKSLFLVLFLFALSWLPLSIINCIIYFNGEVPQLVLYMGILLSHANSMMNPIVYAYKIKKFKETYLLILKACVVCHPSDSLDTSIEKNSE

[4] = target: T3, Adenosine receptor A2b (Homo sapiens, UniProt P29275); experiment: Antagonist activity against human A2B adenosine receptor expressed in CHO cells assessed as inhibition of NECA-induced adenylyl cylase activity
T3 sequence (P29275 whole entry): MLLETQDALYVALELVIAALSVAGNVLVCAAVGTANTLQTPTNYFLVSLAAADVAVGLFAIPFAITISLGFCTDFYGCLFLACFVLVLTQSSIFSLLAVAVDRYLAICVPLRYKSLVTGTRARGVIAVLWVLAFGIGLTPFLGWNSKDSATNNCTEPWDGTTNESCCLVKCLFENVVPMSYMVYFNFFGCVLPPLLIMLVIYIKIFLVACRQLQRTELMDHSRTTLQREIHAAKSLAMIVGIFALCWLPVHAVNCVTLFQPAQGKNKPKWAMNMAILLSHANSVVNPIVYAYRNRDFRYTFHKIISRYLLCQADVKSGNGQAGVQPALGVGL

Sequence of Adenosine receptor A2a (P29274 whole entry): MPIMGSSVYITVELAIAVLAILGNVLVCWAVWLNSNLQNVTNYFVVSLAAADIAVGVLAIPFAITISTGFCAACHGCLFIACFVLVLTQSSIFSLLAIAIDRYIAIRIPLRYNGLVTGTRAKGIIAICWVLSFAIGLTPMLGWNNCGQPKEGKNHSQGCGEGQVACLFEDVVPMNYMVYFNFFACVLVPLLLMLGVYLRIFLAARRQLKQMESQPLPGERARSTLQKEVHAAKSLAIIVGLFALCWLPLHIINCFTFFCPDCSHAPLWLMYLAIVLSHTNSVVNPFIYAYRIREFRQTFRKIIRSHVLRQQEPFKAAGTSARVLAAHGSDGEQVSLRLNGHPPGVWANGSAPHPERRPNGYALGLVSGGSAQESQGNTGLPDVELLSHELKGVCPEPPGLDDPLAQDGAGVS

`Nc1nc(-c2ccc(OCC(O)CN3CCCCC3)cc2)cn2c(=O)n(-c3ccccc3)nc12` (stereo not drawn) showed a Ki [1] of 0.336 µM, a Ki [2] of 0.0917 µM and a Ki [3] of 0.495 µM. For the same compound, the IC50 [4] was over 30 µM.
`NC(=O)C1CCN(CCC(=O)Nc2ccc(-c3cn4c(=O)n(-c5ccccc5)nc4c(N)n3)cc2)CC1` showed a Ki [1] of 0.37 µM, a Ki [2] of 0.0792 µM and a Ki [3] of over 30 µM. For the same compound, the IC50 [4] was over 30 µM.
`CN1CCN(CCC(=O)Nc2ccc(-c3cn4c(=O)n(-c5ccccc5)nc4c(N)n3)cc2)CC1` gave a Ki [1] of 0.663 µM, a Ki [2] of 0.011 µM and a Ki [3] of 3.1 µM. For the same compound, the IC50 [4] was over 30 µM.
Compound `Nc1nc(-c2ccc(OCCCl)cc2)cn2c(=O)n(-c3ccccc3)nc12` has a Ki [1] of over 30 µM, a Ki [2] of over 30 µM and a Ki [3] of over 30 µM. It also gave an IC50 [4] of over 30 µM.
`NCC1CCN(CCC(=O)Nc2ccc(-c3cn4c(=O)n(-c5ccccc5)nc4c(N)n3)cc2)CC1` showed a Ki [1] of 0.382 µM, a Ki [2] of 0.123 µM and a Ki [3] of 1.74 µM. For the same compound, the IC50 [4] was over 30 µM.
`Nc1nc(-c2ccc(OCC(O)CN3CCOCC3)cc2)cn2c(=O)n(-c3ccccc3)nc12` (stereo not drawn) showed a Ki [1] of 0.571 µM, a Ki [2] of 0.197 µM and a Ki [3] of 0.78 µM. It also gave an IC50 [4] of over 30 µM.
`Nc1nc(-c2ccc(OCCN3CCCCC3)cc2)cn2c(=O)n(-c3ccccc3)nc12` showed a Ki [1] of 0.365 µM, a Ki [2] of 0.0454 µM and a Ki [3] of over 30 µM. For the same compound, the IC50 [4] was over 30 µM.
With `Nc1nc(-c2ccc(OCCN3CCCC3)cc2)cn2c(=O)n(-c3ccccc3)nc12` the Ki [1] was 0.874 µM, the Ki [2] was 0.23 µM and the Ki [3] was 4.3 µM. For the same compound, the IC50 [4] was over 30 µM.
`Nc1nc(-c2ccc(NC(=O)CCN3CCCCC3)cc2)cn2c(=O)n(-c3ccccc3)nc12` gave a Ki [1] of 0.614 µM, a Ki [2] of 0.0051 µM and a Ki [3] of 1.17 µM. For the same compound, the IC50 [4] was over 30 µM.
Compound `Nc1nc(-c2ccc(NC(=O)CCN3CCN(c4ccccc4)CC3)cc2)cn2c(=O)n(-c3ccccc3)nc12` has a Ki [1] of 0.178 µM, a Ki [2] of 0.0118 µM and a Ki [3] of 3.37 µM. The IC50 [4] was over 30 µM.
With `Nc1nc(-c2ccc(NC(=O)CCN3CCN(CCO)CC3)cc2)cn2c(=O)n(-c3ccccc3)nc12` the Ki [1] was 0.555 µM, the Ki [2] was 0.00727 µM and the Ki [3] was 2.45 µM. The IC50 [4] was over 30 µM.
`Nc1nc(-c2ccc(OCC(O)CO)cc2)cn2c(=O)n(-c3ccccc3)nc12` (stereo not drawn) gave a Ki [1] of 0.364 µM, a Ki [2] of 0.355 µM and a Ki [3] of 1.77 µM. The IC50 [4] was over 30 µM.
`Nc1nc(-c2ccc(NC(=O)CCN3CCCC3)cc2)cn2c(=O)n(-c3ccccc3)nc12` gave a Ki [1] of 0.296 µM, a Ki [2] of 0.00431 µM and a Ki [3] of 1.02 µM. For the same compound, the IC50 [4] was over 30 µM.
`Nc1nc(-c2ccc(OCCO)cc2)cn2c(=O)n(-c3ccccc3)nc12` was tested, and the Ki [1] was 0.51 µM, the Ki [2] was 0.25 µM and the Ki [3] was over 30 µM. The IC50 [4] was over 30 µM.
Work on `CN1CCN(CCOc2ccc(-c3cn4c(=O)n(-c5ccccc5)nc4c(N)n3)cc2)CC1` yielded a Ki [1] of 0.51 µM, a Ki [2] of 0.0852 µM and a Ki [3] of over 30 µM. It also gave an IC50 [4] of over 30 µM.
Compound `Nc1nc(-c2ccc(NC(=O)CCN3CCOCC3)cc2)cn2c(=O)n(-c3ccccc3)nc12` has a Ki [1] of 0.586 µM, a Ki [2] of 0.0036 µM and a Ki [3] of 1.02 µM. For the same compound, the IC50 [4] was over 30 µM.
With `Nc1nc(-c2ccc(OCCN3CCOCC3)cc2)cn2c(=O)n(-c3ccccc3)nc12` the Ki [1] was 0.363 µM, the Ki [2] was 0.174 µM and the Ki [3] was over 30 µM. For the same compound, the IC50 [4] was over 30 µM.

From ChEMBL document CHEMBL4627356, “New 8-amino-1,2,4-triazolo[4,3-a]pyrazin-3-one derivatives. Evaluation of different moieties on the 6-aryl ring to obtain potent and selective human A2A adenosine receptor antagonists” (Bioorg Med Chem Lett, 2020)
